Data published in US20170304388A1, “NEW INDICATION OF CARDIOVASCULAR DRUGS FOR PREPARATION OF CANCER INHIBITION PHARMACEUTICAL COMPOSITION” (LAUNX BIOMEDICAL CO., LTD., priority 2014, published 2017).
Where a name gives a salt, the structure may show the parent alone.

test system: cancer cell lines; test: Growth inhibitory effects on the panel of cancer cell lines; format: cell-based; details: drug 10 μM, 72 hours, WST-1

Compound | inhibition effect on different cancer cell lines (in words)
CNCC(O)c1ccc(O)c(O)c1 (racemic) [DL-Adrenaline] | significant inhibition effect
C[N+](C)(C)CC(O)CC(=O)O.[Cl-] (racemic) [DL-Carnitine hydrochloride] | significant inhibition effect
CC(C)NC[C@@H](O)COc1ccc(CC(N)=O)cc1 [(R)-(+)-Atenolol] | significant inhibition effect
Nc1ncnc2c1ncn2[C@@H]1O[C@H](CO)[C@@H](O)[C@H]1O [Adenosine (Adenocard), Adenosine] | significant inhibition effect
CNCC(=O)c1ccc(O)c(O)c1 [Adrenalone HCl] | significant inhibition effect
COc1cc2nc(N(C)CCCNC(=O)C3CCCO3)nc(N)c2cc1OC (stereo not drawn) [Alfuzosin hydrochloride (Uroxatral), Alfuzosin hydrochloride] | significant inhibition effect
NC12CC3CC(CC(C3)C1)C2 [Amantadine hydrochloride (Symmetrel), Amantadine hydrochloride] | significant inhibition effect
N=C(N)NC(=O)c1nc(Cl)c(N)nc1N [Amiloride hydrochloride dihydrate] | significant inhibition effect
CCCCc1oc2ccccc2c1C(=O)c1cc(I)c(OCCN(CC)CC)c(I)c1 [Amiodarone HCl] | significant inhibition effect
CCOC(=O)OC(C)OC1=C(C(=O)Nc2ccccn2)N(C)S(=O)(=O)c2ccccc21 (stereo not drawn) [Ampiroxicam] | significant inhibition effect
COc1ccc(C2C(=O)c3ccccc3C2=O)cc1 [Anisindione] | significant inhibition effect
COc1ccc(-n2nc(C(N)=O)c3c2C(=O)N(c2ccc(N4CCCCC4=O)cc2)CC3)cc1 [Apixaban] | significant inhibition effect
CC1CNc2c(cccc2S(=O)(=O)N[C@@H](CCCNC(=N)N)C(=O)N2CC[C@@H](C)C[C@@H]2C(=O)O)C1 (stereo partly drawn) [Argatroban] | significant inhibition effect
CCOc1nc2cccc(C(=O)OCc3oc(=O)oc3C)c2n1Cc1ccc(-c2ccccc2-c2noc(=O)[nH]2)cc1 [Azilsartan Medoxomil (TAK-491), Azilsartan Medoxomil] | significant inhibition effect
NS(=O)(=O)c1cc2c(cc1C(F)(F)F)NC(Cc1ccccc1)NS2(=O)=O (stereo not drawn) [Bendroflumethiazide] | significant inhibition effect
NS(=O)(=O)c1cc2c(cc1Cl)N=C(CSCc1ccccc1)NS2(=O)=O [Benzthiazide] | significant inhibition effect
N[C@@H]1CCCCN(c2c(F)cc3c(=O)c(C(=O)O)cn(C4CC4)c3c2Cl)C1 [Besifloxacin HCl (Besivance), Besifloxacin HCl] | significant inhibition effect
CC(C)NCC(O)COc1ccc(CCOCC2CC2)cc1 (stereo not drawn) [Betaxolol hydrochloride (Betoptic), Betaxolol hydrochloride] | significant inhibition effect
C=C(c1ccc(C(=O)O)cc1)c1cc2c(cc1C)C(C)(C)CCC2(C)C [Bexarotene] | significant inhibition effect
CCNC(=O)CCC/C=C\C[C@@H]1[C@@H](/C=C/[C@@H](O)CCc2ccccc2)[C@H](O)C[C@@H]1O [Bimatoprost] | significant inhibition effect
CN(Cc1cc(Br)cc(Br)c1N)C1CCCCC1 [Bromhexine HCl] | significant inhibition effect
CS(=O)(=O)OCCCCOS(C)(=O)=O [Busulfan (Myleran, Busulfex), Busulfan] | significant inhibition effect
CCOc1nc2cccc(C(=O)OC(C)OC(=O)OC3CCCCC3)c2n1Cc1ccc(-c2ccccc2-c2nnn[nH]2)cc1 (stereo not drawn) [Candesartan cilexetil (Atacand), Candesartan cilexetil] | significant inhibition effect
CC(C)C[C@H](NC(=O)[C@H](CCc1ccccc1)NC(=O)CN1CCOCC1)C(=O)N[C@@H](Cc1ccccc1)C(=O)N[C@@H](CC(C)C)C(=O)[C@@]1(C)CO1 [Carfilzomib (PR-171), Carfilzomib] | significant inhibition effect
COc1ccccc1OCCNCC(O)COc1cccc2[nH]c3ccccc3c12 (stereo not drawn) [Carvedilol] | significant inhibition effect
NS(=O)(=O)c1cc2c(cc1Cl)N=CNS2(=O)=O [Chlorothiazide] | significant inhibition effect
CCOC(=O)[C@H](CCc1ccccc1)N[C@H]1CCCN2CCC[C@@H](C(=O)O)N2C1=O [Cilazapril monohydrate (Inhibace), Cilazapril monohydrate] | significant inhibition effect

Compound | inhibition effect on different cancer cell lines (in words)
O=C1CCc2cc(OCCCCc3nnnn3C3CCCCC3)ccc2N1 [Cilostazol] | significant inhibition effect
CCCC(=O)OCOC(=O)C1=C(C)NC(C)=C(C(=O)OC)C1c1cccc(Cl)c1Cl (stereo not drawn) [Cleviprex (Clevidipine), Clevidipine] | significant inhibition effect
COC(=O)[C@H](c1ccccc1Cl)N1CCc2sccc2C1 [Clopidogrel (Plavix), Clopidogrel] | significant inhibition effect
CC(C)NCC(O)c1ccccc1Cl (stereo not drawn) [Clorprenaline HCL] | significant inhibition effect
Cc1onc(-c2ccccc2Cl)c1C(=O)N[C@@H]1C(=O)N2[C@@H]1SC(C)(C)[C@@H]2C(=O)O [Cloxacillin sodium (Cloxacap), Cloxacillin sodium] | significant inhibition effect
Cc1nc2c([nH]1)-c1ccccc1N(C(=O)c1ccc(NC(=O)c3ccccc3-c3ccccc3)cc1)CC2 [Conivaptan HCl (Vaprisol), Conivaptan HCl] | significant inhibition effect
Nc1ccn([C@@H]2O[C@H](CO)[C@@H](O)[C@H]2O)c(=O)n1 [Cytidine] | significant inhibition effect
OC[C@@H](O)[C@@H](O)[C@H](O)[C@H](O)CO [D-Mannitol (Osmitrol), D-Mannitol] | significant inhibition effect
O=c1c(-c2ccc(O)cc2)coc2cc(O)ccc12 [Daidzein] | significant inhibition effect
Cc1c(O)c(=O)ccn1C [Deferiprone] | significant inhibition effect
Oc1ccc(OC2CCCCO2)cc1 (stereo not drawn) [Deoxyarbutin] | significant inhibition effect
C[C@@H](CN1CC(=O)NC(=O)C1)N1CC(=O)NC(=O)C1 [Dexrazoxane Hydrochloride] | significant inhibition effect
NS(=O)(=O)c1cc(Cl)c(Cl)c(S(N)(=O)=O)c1 [Dichlorphenamide (Diclofenamide), Dichlorphenamide] | significant inhibition effect
COc1ccc([C@@H]2Sc3ccccc3N(CCN(C)C)C(=O)[C@@H]2OC(C)=O)cc1 [Diltiazem HCl (Tiazac), Diltiazem HCl] | significant inhibition effect
CN(CCOc1ccc(NS(C)(=O)=O)cc1)CCc1ccc(NS(C)(=O)=O)cc1 [Dofetilide (Tikosyn), Dofetilide] | significant inhibition effect
COc1cc2nc(N3CCN(C(=O)C4COc5ccccc5O4)CC3)nc(N)c2cc1OC (stereo not drawn) [Doxazosin mesylate] | significant inhibition effect
CC1=NN(c2ccccc2)C(=O)C1 [Edaravone (MCI-186), Edaravone] | significant inhibition effect
CCOC(=O)[C@H](CCc1ccccc1)N[C@@H](C)C(=O)N1CCC[C@H]1C(=O)O [Enalapril maleate (Vasotec), Enalapril maleate] | significant inhibition effect
C[C@H](N[C@@H](CCc1ccccc1)C(=O)O)C(=O)N1CCC[C@H]1C(=O)O.O.O [Enalaprilat dehydrate] | significant inhibition effect
COC(=O)[C@@H]1CC2=CC(=O)CC[C@]2(C)[C@@]23O[C@@H]2C[C@@]2(C)[C@@H](CC[C@@]24CCC(=O)O4)[C@H]13 [Eplerenone] | significant inhibition effect
CCCCc1ncc(/C=C(\Cc2cccs2)C(=O)O)n1Cc1ccc(C(=O)O)cc1 [Eprosartan Mesylate] | significant inhibition effect
COC(=O)CCc1ccc(OCC(O)CNC(C)C)cc1 (stereo not drawn) [Esmolol HCl] | significant inhibition effect
O=S(=O)(O)c1cc(O)ccc1O [Ethamsylate] | significant inhibition effect
O=C1[C@H](CC[C@H](O)c2ccc(F)cc2)[C@@H](c2ccc(O)cc2)N1c1ccc(F)cc1 [Ezetimibe (Zetia), Ezetimibe] | significant inhibition effect
NC(N)=Nc1nc(CSCCC(N)=NS(N)(=O)=O)cs1 [Famotidine (Pepcid), Famotidine] | significant inhibition effect
CNC[C@H](O)[C@@H](O)[C@H](O)[C@H](O)CO.CNC[C@H](O)[C@@H](O)[C@H](O)[C@H](O)CO.C[C@@H](O[C@H]1OCCN(Cc2nn(P(=O)(O)O)c(=O)[nH]2)[C@H]1c1ccc(F)cc1)c1cc(C(F)(F)F)cc(C(F)(F)F)c1 [Fosaprepitant dimeglumine] | significant inhibition effect
Cc1ccc(C)c(OCCCC(C)(C)C(=O)O)c1 [Gemfibrozil (Lopid), Gemfibrozil] | significant inhibition effect
